Results on five compounds are retold here after US20230312631A1, “EXTRUSION PROCESS FOR THE PREPARATION OF A SOLID ALLULOSE COMPOSITION” (SAVANNA INGREDIENTS GMBH, priority 2020, published 2023).

Structures are written as SMILES. Read-outs that look alike come from different tables or passages of the source.

For data set [1] the following is noted: cited from earlier work.
Data set [2] can be described thus: Preliminary tests to estimate supersaturation and undercooling of carbohydrates in water. The format is physicochemical. From the text: Therefore, preliminary tests were made in order to estimate supersaturation and overcooling of various carbohydrates in water under different conditions.
The conditions of data set [3]: cited from earlier work. The source holds these as a separate data set.
Data set [4] is described as follows: Mutarotation: angle of rotation over time after dissolving allulose in water (polarimeter). The format is physicochemical. Conditions: 23° C.; for angle of rotation: desalted water, DS about 26 wt.-%. On the procedure:
Crystalline allulose was dissolved in water (DS 26 wt.-%). Quickly afterwards, the sample was placed in a polarimeter and the angle of rotation was read off at regular intervals ([…], 23° C.). From this, the angle of rotation was then plotted over time (see FIG. 1). 74.30 g of water and 26.05 g of crystalline allulose were mixed. The mixture was briefly stirred with a stir bar until the allulose was completely dissolved. Then a sample was placed in the polarimeter and the angle of rotation of the same sample was measured at regular intervals. There were approximately 5 minutes between the addition of the allulose and the first measured value (0 min).
Mutarotation of solid allulose obtained in accordance with the present invention was compared to mutarotation of highly crystalline allulose. For this purpose, solutions at a dry substance content of about DS 26 wt.-% were prepared from powdery compositions each having a particle size within the range of from 100 to 200 μm (sieve fraction).
15.61 g of powdery crystalline allulose (comparative) of grain size 100-200 μm were dissolved at 23° C. in 47.6 g desalted water in a 500 mL beaker. The angle of rotation was measured over time with a polarimeter.
13.00 g of extruded allulose (inventive) of grain size 100-200 μm were dissolved at 23° C. in 37.07 g desalted water in a 500 mL beaker. The angle of rotation was measured over time with a polarimeter.
For the sake of better comparability, the specific angle of rotation [(° *ml)/(dm*g)] was calculated for each measured value. The results are visualized in FIG. 2.

For data set [5] the following is noted: cited from earlier work. The source holds these as a separate data set.
Where [6] appears, read: mass fraction 90%, temperature 58° C.
[7] abbreviates: in water, 13C NMR (du Penhoat et al.).
Where [8] appears, read: mass fraction 70% prior to evaporation, temperature 150° C.
Setting [9] is: mass fraction 80% prior to evaporation, temperature 190° C.
The mark [10] stands for this setting: mass fraction 80%, temperature 149° C.

With `OC[C@@]1(O)OC[C@@H](O)[C@@H](O)[C@H]1O` [β-D-psicopyranose], the “Mutarotation [α]” value in data set [1] (in water) is recorded as “about −85 deg dm^−1 cm^3”.
For `OC[C@H]1O[C@H](OC[C@H]2OC(O)(CO)[C@@H](O)[C@@H]2O)[C@H](O)[C@@H](O)[C@@H]1O` (stereo partly drawn) [isomaltulose], in data set [2] (setting [6]), the supersaturation is 35% and the undercooling is reported as 62K.
Turning to `O=C(CO)C(O)C(O)C(O)CO` [allulose, D-allulose], in data set [3] (in D2O at 303.15 K), the “percent composition of anomeric forms: keto form” value is listed as 0.2%, the “percent composition of anomeric forms: α-furanose” value is on record as 39%, the “percent composition of anomeric forms: α-pyranose” value is recorded as 22% and the “percent composition of anomeric forms: β-furanose” value is reported as 15%. In addition, the “percent composition of anomeric forms: β-pyranose” value in data set [3] (in D2O at 303.15 K) is given as 24%. Further, in data set [3] (setting [7]), the “equilibrium composition: α-furanose” value is reported as 37%, the “equilibrium composition: α-pyranose” value was around 26%, the “equilibrium composition: β-furanose” value is recorded as around 11% and the “equilibrium composition: β-pyranose” value is reported as around 26%. Besides, in data set [4] (26.05 g crystalline allulose in 74.30 g water, DS 26 wt.-%, FIG. 1), the “time until the angle of rotation remains constant (chiral species in solution equilibrated)” value is given as “more than 1 hour”. Also, in data set [2] (setting [8]), the supersaturation is given as −27% and the undercooling is −54K. For the same compound, in data set [2] (setting [9]), the supersaturation was −19% and the undercooling is −94K. In addition, the “rate constant k of development of open-chain carbonyl-form in solution (first-order)” value in data set [1] (absorbance at 280 nm after dissolution) is reported as 4.44 ms^−1. Further, the “equilibrium content of carbonyl-form” value in data set [1] (in solution) is reported as “about 0.2%”. In data set [5] (25° C.), the solubility is 291 g per 100 g water, the solubility in water was 291 g in 100 g of water and the “solubility in water expressed as mass fraction” value is reported as 74%. Moreover, in data set [5] (50° C.), the solubility in water is on record as 489 g in 100 g of water and the “solubility in water expressed as mass fraction” value is 83%.
As to `O=C(CO)C(O)C(O)C(O)CO` (stereo not drawn) [comparative, allulose], the angle of rotation in data set [4] (time 0 min) is −33.4 °; in data set [4] (time 0.5 min), −31.1 °; in data set [4] (time 1 min), −29 °; in data set [4] (time 1.5 min), −27 °; in data set [4] (time 2 min) it was −25.1 °; in data set [4] (time 2.5 min), −23.35 °. Moreover, the angle of rotation in data set [4] (time 3 min) is −21.7 °; in data set [4] (time 3.5 min), −20.13 °; in data set [4] (time 4 min), −18.71 °; in data set [4] (time 4.5 min) it was −17.36 °; in data set [4] (time 5 min) it was −16.1 °; in data set [4] (time 5.5 min), −14.91 °. Further, the angle of rotation in data set [4] (time 6 min) is −13.8 °; in data set [4] (time 6.5 min) it was −12.78 °; in data set [4] (time 7 min) it was −11.81 °; in data set [4] (time 7.5 min) it was −10.9 °; in data set [4] (time 8 min), −10.05 °; in data set [4] (time 8.5 min), −9.25 °. The angle of rotation in data set [4] (time 9 min) is recorded as −8.51 °; in data set [4] (time 9.5 min), −7.81 °; in data set [4] (time 10 min), −7.18 °; in data set [4] (time 10.5 min) it was −6.57 °; in data set [4] (time 11 min), −6 °; in data set [4] (time 11.5 min), −5.47 °. For the same compound, the angle of rotation in data set [4] (time 12 min) is reported as −4.98 °; in data set [4] (time 12.5 min) it was −4.51 °; in data set [4] (time 13 min), −4.08 °; in data set [4] (time 13.5 min), −3.67 °; in data set [4] (time 14 min), −3.29 °; in data set [4] (time 14.5 min), −2.93 °. In addition, the angle of rotation in data set [4] (time 15 min) is −2.6 °; in data set [4] (time 15.5 min) it was −2.29 °; in data set [4] (time 16 min), −2 °; in data set [4] (time 16.5 min), −1.72 °; in data set [4] (time 17 min), −1.47 °; in data set [4] (time 17.5 min), −1.23 °. Moreover, the angle of rotation in data set [4] (time 18 min) was −1 °; in data set [4] (time 18.5 min), −0.8 °; in data set [4] (time 19 min) it was −0.6 °; in data set [4] (time 19.5 min) it was −0.41 °; in data set [4] (time 20 min), −0.24 °; in data set [4] (time 20.5 min), −0.08 °. Also, the angle of rotation is reported as 0.07 ° in data set [4] (time 21 min); 0.22 ° in data set [4] (time 21.5 min); 0.35 ° in data set [4] (time 22 min); 0.47 ° in data set [4] (time 22.5 min); 0.59 ° in data set [4] (time 23 min); 0.7 ° in data set [4] (time 23.5 min). Moreover, the angle of rotation in data set [4] (time 24 min) was 0.8 °; in data set [4] (time 24.5 min) it was 0.9 °; in data set [4] (time 25 min), 0.99 °; in data set [4] (time 25.5 min) it was 1.07 °; in data set [4] (time 26 min) it was 1.15 °; in data set [4] (time 26.5 min) it was 1.22 °. The angle of rotation in data set [4] (time 27 min) is 1.29 °; in data set [4] (time 27.5 min) it was 1.36 °; in data set [4] (time 28 min), 1.42 °; in data set [4] (time 28.5 min), 1.48 °; in data set [4] (time 29 min) it was 1.53 °; in data set [4] (time 29.5 min) it was 1.58 °. In addition, the angle of rotation in data set [4] (time 30 min) came out at 1.63 °; in data set [4] (time 35 min), 1.96 °; in data set [4] (time 40 min), 2.13 °; in data set [4] (time 45 min) it was 2.22 °; in data set [4] (time 50 min), 2.26 °; in data set [4] (time 55 min), 2.29 °. Moreover, the angle of rotation in data set [4] (time 60 min) was 2.30 °.
On to `OC[C@H]1O[C@@](CO)(O[C@H]2O[C@H](CO)[C@@H](O)[C@H](O)[C@H]2O)[C@@H](O)[C@@H]1O` [sucrose], for which, in data set [2] (setting [10]), the supersaturation is listed as −14% and the undercooling is 37K.
